Series [1] is described as follows: Solubility studies (crystalline and amorphous solubility, UV analysis). As to conditions: phosphate buffered saline (PBS), pH 6.8 PBS, 25 °C. It counts as physicochemical. Here is the method: The “crystalline solubility” was measured by the following method. An excess amount of crystal IMC powder was added to 10 mL of pH 6.8 PBS. These mixtures were kept at 25 °C and stirred at 300 rpm for 48 h. Ultracentrifugation was performed at 12,000 rpm and 25 °C for 30 min to separate excess solids using an Optima L-100XP ultracentrifuge (Beckman Coulter Inc., Brea, CA, USA). Then 5 mL of the supernatant was taken for ultraviolet (UV) spectroscopy analysis. All samples were prepared in triplicate.
The solubility of the amorphous IMC in the presence of excipients was also determined by calculating the solution concentration evolved from SDs at 25 °C after 48 h. Briefly, IMC–SDs were prepared by solvent evaporation directly from scintillation vials using a rotary evaporator. Then, 10 mL of pH 6.8 PBS was added. Solution concentration measurements were conducted following the ultraviolet (UV) spectroscopy analysis. The concentration of IMC was calculated with a standard curve built before.

A short description of series [2]: In vivo pharmacokinetic study after oral administration. As to conditions: male, Sprague-Dawley, rat, plasma, rats, 40 mg/kg. Here is the method: Male Sprague–Dawley rats (body weight 200 ± 20 g) were randomly divided into three groups (n = 3). Sprague–Dawley rats (200 ± 20 g) were obtained from Animal Experiment Center of Shanghai Institute of Material Medica, Shanghai, China. All animal experiments were performed by strictly following Institutional Animal Care and Use Committee (IACUC) guidelines (71044, 10 August 2019). Prior to the experiments, the rats were fasted overnight with free access to water. Aqueous suspensions of IMC, SDs with MSNs (F3), SDs with MSNs and Kollicoat IR (F6), and SDs with MSNs and HPMC (F9) at 40 mg/kg were orally administered, respectively, and blood samples (0.5 mL) were collected at different time points (0, 0.5, 1, 2, 4, 6, 8, 12, and 24 h) in microcentrifuge tubes containing heparin by retro-orbital venipuncture technique. The blood samples were immediately centrifuged at 4000 rpm for 10 min, and the supernatant was collected for further processing.
Plasma samples were processed as follows: 200 µL plasma samples were mixed with 20 µL of an internal standard solution (0.5 mg/mL naproxen), 90 µL 10% KH2PO4, and 1 mL dichloromethane, and then the mixture was vortexed for 3 min. Then, the mixture solutions were centrifuged at 10,000 rpm for 4 min, the organic layer was remained, and then the organic layer was evaporated in a gentle stream of nitrogen at room temperature. The residue was suspended in 100 µL of the mobile phase (acetonitrile:0.01 M H3PO4 = 55:45). After vortex mixing and centrifugation, samples were analyzed using HPLC.

For series [3] the following is noted: based on Equations (6) and (7); cited from earlier work.
Series [4] in a line: In vitro dissolution, USP II paddle method. The format is physicochemical. To be noted: at 90 min, pH 6.8 PBS. Here is the method:
The optimum ratios of all solid dispersion carriers were selected by drug release experiments in vitro. In vitro dissolution studies on pure IMC and SDs with different carriers were carried out using the United States Pharmacopeia Apparatus II (USP II) paddle method (100 rpm, 37 °C, and 250 mL pH 6.8 phosphate buffer solutions) with a ZRS-8G dissolution tester (Shanghai, China). Ten milligrams of sample powder was placed in the dissolution medium, and 5 mL of pH 6.8 phosphate buffer solution (PBS, artificial intestinal fluid) was withdrawn at pre-designed time intervals (0, 5, 10, 15, 20, 30, 40, 50, 60 and 90 min) prior to filtration. The concentration of samples was analyzed using an UV spectrophotometer (756 PC UV-2200, Shanghai, China) at 320 nm. All measurements were repeated three times.

In brackets after ≈: the same amount, converted by molar mass.

As usually defined, the solubility is the concentration that dissolves in the medium under given conditions. Usually Tmax stands for the time from dosing to the highest level. One may read the AUC(0-t) as the area under the concentration-time curve up to a stated or last time point. A high value points to high exposure. One may read the Cmax as the maximum level reached in the sampled fluid or tissue.

Turning to `COc1ccc2c(c1)c(CC(=O)O)c(C)n2C(=O)c1ccc(Cl)cc1` [IMC, Indomethacin], in series [1], the solubility at 48 h worked out at 23 µg/mL (≈ 64.3 µM). The Tmax in series [2] turned out to be 4 h. In series [2] (mean ± SD, n = 3), the AUC(0-t) was determined as 1240 ± 189 µg·h/mL and the maximum concentration (Cmax) came to 125 ± 3.8 µg/mL. Besides, in series [3], the “Hansen solubility parameter δ” value was 24.8 MPa^1/2. The “Folds (increase of cumulative dissolution rate compared to pure IMC)” value in series [4] came to 1.00 ± 0.28 folds. Further, in series [4] (37 °C, 100 rpm, mean ± SD, n = 3), the “Cumulative Drug Dissolution Rate (%)” value is on record as 27.43 ± 0.96%.
